Among the data in ChEMBL document CHEMBL5465560, “Selectivity Literature for EUbOPEN Chemogenomic Library” (2024) are % of control and % of inhibition values, retold here.

Assay [1] addresses Misshapen-like kinase 1 (Homo sapiens, UniProt Q8N4C8). Briefly: Selectivity interaction (Ambit KINOMEscan and KiNATiv profiling in Jurkat cells) EUB0000090b MINK1. The class given is cell-based. As to conditions: at 1 µM.
Assay [2] addresses T1, Serine/threonine-protein kinase N1 (Homo sapiens, UniProt Q16512). As to conditions: at 10 µM.
Assay [3] concerns the target T2, Serine/threonine-protein kinase TNNI3K (Homo sapiens) (UniProt Q59H18).
T2 sequence (whole entry): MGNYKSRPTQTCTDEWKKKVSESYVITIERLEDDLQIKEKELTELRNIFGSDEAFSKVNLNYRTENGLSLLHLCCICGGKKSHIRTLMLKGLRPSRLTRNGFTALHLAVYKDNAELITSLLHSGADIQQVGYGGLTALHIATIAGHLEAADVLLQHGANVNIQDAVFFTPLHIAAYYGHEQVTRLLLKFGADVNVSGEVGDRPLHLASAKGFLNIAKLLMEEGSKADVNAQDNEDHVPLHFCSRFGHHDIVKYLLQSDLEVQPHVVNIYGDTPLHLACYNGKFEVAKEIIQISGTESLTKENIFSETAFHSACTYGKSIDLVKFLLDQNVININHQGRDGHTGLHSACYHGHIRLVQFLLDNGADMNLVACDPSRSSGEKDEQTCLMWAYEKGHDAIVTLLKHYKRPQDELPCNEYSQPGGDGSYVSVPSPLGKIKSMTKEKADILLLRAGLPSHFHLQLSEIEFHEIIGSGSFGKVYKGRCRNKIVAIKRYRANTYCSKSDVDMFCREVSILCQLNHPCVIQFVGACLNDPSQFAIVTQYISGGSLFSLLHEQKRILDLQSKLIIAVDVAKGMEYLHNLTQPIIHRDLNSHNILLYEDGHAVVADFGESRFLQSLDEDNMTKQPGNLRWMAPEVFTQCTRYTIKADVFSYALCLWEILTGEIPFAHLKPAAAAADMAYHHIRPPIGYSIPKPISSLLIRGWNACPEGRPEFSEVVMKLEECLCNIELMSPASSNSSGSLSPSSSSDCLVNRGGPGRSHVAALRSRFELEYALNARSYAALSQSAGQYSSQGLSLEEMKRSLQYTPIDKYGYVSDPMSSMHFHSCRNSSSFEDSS
Briefly: Selectivity interaction (KinomeScan (DiscoverX)) EUB0001079a TNNI3K. Conditions: at 1 µM.

In assay [4] the target is Mitogen-activated protein kinase kinase kinase 4 (Homo sapiens) (UniProt Q9Y6R4). Briefly: Selectivity interaction (KinomeScan (DiscoverX)) EUB0000092b MAP3K4. As to conditions: at 10 µM.
Assay [5] concerns the target T3, NUAK family SNF1-like kinase 1 (Homo sapiens) (UniProt O60285).
T3 sequence (whole entry): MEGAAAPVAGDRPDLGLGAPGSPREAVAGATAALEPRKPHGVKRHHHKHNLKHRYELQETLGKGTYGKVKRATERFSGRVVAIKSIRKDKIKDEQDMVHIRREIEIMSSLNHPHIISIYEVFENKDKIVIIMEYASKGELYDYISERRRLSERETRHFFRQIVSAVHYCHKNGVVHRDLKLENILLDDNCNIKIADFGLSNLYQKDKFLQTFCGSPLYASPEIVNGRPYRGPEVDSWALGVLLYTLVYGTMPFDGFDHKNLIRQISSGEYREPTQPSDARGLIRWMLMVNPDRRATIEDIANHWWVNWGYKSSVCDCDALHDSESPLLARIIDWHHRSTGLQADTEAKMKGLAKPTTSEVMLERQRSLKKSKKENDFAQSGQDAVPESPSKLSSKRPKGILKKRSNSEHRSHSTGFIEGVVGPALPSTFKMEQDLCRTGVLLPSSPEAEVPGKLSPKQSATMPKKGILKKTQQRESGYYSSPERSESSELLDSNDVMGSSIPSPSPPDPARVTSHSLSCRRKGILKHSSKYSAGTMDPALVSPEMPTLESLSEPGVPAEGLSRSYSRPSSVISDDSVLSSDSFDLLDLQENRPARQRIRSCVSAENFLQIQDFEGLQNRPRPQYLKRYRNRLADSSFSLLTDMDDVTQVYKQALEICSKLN
Briefly: Selectivity interaction (KinomeScan (DiscoverX)) EUB0000607a NUAK1. As to conditions: at 10 µM.

The target in assay [6] is Cyclin-dependent kinase 2 (Homo sapiens, UniProt P24941). Briefly: Selectivity interaction (KinomeScan (DiscoverX)) EUB0000607a CDK2. As to conditions: at 10 µM.
The target of assay [7] is Calcium/calmodulin-dependent protein kinase type II subunit delta (Homo sapiens) (UniProt Q13557). Briefly: Selectivity interaction (ActivX KiNativ screen (kinase selectivity in THP-1 cell lysates)) EUB0000639a CAMK2D. Type of assay: subcellular. Conditions: lysate, at 1 µM.
Assay [8] concerns the target T1, Serine/threonine-protein kinase N1. Briefly: Selectivity interaction (ActivX KiNativ screen (kinase selectivity in THP-1 cell lysates)) EUB0000639a PKN1. The class given is subcellular. Conditions: lysate, at 1 µM.
In assay [9] the target is T4, Serine/threonine-protein kinase ICK (Homo sapiens) (UniProt Q9UPZ9).
T4 sequence (whole entry): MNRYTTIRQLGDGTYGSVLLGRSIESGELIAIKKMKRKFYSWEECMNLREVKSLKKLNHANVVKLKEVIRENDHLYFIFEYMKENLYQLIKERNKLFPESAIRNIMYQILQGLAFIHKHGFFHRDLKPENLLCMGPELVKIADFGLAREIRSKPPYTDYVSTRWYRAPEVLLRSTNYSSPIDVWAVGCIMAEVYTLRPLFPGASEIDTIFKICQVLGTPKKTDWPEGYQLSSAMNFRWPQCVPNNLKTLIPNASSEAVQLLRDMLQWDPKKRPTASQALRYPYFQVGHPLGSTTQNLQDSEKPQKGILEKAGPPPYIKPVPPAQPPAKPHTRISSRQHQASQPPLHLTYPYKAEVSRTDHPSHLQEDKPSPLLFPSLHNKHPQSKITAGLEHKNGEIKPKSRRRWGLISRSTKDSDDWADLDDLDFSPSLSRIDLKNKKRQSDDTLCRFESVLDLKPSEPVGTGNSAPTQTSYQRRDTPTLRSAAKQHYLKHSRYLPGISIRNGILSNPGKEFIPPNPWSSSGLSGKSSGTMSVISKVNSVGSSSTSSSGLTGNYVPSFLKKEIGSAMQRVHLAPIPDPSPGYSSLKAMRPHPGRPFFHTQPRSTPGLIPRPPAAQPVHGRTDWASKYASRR
Briefly: Selectivity interaction (KinomeScan (DiscoverX)) EUB0000595a ICK. As to conditions: at 10 µM.

T1 sequence (Q16512 2-942 limits assumed): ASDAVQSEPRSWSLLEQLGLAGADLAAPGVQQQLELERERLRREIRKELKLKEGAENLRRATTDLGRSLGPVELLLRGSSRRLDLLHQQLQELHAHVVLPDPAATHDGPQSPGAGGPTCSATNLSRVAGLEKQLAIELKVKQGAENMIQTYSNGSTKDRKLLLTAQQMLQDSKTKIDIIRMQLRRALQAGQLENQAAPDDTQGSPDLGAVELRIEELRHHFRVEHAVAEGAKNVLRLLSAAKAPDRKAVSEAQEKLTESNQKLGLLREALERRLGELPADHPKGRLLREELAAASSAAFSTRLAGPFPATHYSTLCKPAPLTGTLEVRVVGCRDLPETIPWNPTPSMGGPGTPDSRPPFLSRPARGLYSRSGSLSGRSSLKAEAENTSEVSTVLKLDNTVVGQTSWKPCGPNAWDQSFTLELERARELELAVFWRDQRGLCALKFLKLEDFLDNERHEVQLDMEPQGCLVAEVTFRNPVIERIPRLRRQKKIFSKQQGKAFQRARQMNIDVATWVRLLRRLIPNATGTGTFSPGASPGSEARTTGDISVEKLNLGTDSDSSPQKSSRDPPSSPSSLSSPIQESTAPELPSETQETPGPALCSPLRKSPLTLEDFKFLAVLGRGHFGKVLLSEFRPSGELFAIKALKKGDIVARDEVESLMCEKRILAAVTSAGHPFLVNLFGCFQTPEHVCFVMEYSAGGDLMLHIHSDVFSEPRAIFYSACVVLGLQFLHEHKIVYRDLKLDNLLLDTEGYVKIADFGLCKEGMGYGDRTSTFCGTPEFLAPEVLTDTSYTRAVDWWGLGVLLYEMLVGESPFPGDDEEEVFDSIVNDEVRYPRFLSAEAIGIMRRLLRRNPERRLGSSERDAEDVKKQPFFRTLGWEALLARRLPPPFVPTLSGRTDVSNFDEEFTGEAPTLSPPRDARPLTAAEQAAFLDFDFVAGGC
Mitogen-activated protein kinase kinase kinase 4 (Homo sapiens), sequence (Q9Y6R4 whole entry): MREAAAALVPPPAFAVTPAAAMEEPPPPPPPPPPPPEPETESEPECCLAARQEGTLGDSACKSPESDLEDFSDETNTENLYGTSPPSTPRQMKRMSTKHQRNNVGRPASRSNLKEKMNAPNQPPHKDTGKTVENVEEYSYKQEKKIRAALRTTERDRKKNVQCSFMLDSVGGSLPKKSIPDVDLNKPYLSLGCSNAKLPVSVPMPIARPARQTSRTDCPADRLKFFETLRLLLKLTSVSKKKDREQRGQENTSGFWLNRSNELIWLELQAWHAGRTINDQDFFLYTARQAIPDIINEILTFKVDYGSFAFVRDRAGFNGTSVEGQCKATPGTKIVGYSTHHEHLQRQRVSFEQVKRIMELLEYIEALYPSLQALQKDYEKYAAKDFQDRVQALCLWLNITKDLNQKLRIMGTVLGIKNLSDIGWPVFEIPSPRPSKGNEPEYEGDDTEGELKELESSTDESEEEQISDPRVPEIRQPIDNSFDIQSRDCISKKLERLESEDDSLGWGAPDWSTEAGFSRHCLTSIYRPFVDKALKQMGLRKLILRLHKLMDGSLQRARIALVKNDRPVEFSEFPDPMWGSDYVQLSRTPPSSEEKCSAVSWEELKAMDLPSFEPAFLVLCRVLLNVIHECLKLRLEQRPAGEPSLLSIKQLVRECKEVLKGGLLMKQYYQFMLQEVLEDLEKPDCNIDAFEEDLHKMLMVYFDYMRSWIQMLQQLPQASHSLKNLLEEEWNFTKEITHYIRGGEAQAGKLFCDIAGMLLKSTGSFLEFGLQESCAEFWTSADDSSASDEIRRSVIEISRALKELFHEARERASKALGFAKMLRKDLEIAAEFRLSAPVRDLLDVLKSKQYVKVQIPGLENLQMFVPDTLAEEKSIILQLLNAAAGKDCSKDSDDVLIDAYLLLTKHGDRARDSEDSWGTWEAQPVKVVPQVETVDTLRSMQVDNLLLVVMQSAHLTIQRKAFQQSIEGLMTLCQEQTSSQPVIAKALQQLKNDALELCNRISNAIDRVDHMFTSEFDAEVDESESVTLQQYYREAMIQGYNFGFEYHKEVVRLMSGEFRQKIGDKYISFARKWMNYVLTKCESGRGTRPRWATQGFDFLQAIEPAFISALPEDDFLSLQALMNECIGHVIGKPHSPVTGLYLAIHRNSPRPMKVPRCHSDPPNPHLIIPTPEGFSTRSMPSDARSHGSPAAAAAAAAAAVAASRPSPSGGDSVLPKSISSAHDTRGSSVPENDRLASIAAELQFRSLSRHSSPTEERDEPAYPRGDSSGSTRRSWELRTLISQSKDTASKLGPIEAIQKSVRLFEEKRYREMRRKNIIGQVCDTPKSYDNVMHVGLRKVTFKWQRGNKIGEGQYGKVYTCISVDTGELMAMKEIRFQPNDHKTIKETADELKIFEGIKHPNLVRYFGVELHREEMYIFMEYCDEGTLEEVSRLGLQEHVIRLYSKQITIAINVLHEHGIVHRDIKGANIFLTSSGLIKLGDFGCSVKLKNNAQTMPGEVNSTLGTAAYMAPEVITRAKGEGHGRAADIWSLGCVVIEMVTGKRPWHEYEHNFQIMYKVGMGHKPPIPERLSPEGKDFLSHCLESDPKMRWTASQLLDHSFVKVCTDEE
Misshapen-like kinase 1, sequence (Q8N4C8 whole entry, looked up): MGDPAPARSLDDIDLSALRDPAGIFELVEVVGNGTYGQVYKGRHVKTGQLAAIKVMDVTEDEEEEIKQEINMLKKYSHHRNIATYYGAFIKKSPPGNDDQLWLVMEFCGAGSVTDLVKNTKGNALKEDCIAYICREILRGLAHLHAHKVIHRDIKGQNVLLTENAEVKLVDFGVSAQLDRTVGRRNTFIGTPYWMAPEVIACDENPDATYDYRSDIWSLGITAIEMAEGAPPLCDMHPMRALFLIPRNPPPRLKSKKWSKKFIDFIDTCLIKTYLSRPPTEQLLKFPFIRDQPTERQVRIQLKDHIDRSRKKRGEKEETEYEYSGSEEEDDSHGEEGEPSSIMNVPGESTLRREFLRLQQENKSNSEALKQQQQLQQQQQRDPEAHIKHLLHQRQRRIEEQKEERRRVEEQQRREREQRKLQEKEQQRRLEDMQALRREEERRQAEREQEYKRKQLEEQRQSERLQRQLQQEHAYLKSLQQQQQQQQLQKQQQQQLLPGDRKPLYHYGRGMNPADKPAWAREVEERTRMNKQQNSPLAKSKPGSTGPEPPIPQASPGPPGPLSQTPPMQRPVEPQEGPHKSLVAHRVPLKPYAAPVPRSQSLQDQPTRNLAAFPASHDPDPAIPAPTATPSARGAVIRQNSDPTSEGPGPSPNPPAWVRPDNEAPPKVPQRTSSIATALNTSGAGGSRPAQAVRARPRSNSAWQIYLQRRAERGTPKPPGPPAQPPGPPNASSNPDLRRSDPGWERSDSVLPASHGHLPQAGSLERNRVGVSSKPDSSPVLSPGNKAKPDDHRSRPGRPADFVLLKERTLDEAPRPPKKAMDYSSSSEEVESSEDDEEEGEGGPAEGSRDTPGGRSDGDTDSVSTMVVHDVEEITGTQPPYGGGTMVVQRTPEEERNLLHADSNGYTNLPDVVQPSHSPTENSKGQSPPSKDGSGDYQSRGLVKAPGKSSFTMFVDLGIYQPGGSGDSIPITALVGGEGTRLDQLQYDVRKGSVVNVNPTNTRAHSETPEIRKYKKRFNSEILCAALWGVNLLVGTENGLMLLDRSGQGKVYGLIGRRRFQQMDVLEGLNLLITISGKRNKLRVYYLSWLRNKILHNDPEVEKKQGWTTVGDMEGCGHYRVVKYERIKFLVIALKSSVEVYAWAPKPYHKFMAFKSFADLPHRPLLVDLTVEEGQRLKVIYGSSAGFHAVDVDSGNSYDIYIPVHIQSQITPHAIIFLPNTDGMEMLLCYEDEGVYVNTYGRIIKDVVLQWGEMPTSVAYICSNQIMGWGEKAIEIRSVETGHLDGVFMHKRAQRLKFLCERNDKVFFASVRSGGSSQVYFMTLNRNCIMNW
Calcium/calmodulin-dependent protein kinase type II subunit delta (Homo sapiens), sequence (Q13557 whole entry): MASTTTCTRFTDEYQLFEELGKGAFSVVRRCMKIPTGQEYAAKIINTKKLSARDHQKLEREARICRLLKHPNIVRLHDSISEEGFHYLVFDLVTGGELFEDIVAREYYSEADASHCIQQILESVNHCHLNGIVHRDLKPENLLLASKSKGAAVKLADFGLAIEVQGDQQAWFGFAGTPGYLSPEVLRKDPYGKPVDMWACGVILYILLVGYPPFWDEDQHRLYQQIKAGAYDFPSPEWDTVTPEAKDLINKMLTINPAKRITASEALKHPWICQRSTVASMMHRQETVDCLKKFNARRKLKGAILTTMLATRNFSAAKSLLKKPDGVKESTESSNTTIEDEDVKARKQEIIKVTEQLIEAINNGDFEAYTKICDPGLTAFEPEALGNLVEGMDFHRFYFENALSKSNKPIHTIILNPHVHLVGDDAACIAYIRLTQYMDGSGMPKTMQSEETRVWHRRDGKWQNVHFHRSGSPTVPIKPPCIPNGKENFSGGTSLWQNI

`CN(C)C/C=C/C(=O)Nc1ccc(C(=O)N2CCCC(Nc3ncc(Cl)c(-c4c[nH]c5ccccc45)n3)C2)cc1` (centres undefined) returned a % of control in assay [1] of 89%.

In [2], `CCN(CC)CCCCNc1ncc2cc(-c3cc(OC)cc(OC)c3)c(NC(=O)NC(C)(C)C)nc2n1` returned a % of control of 100%.

With `Nc1cnc(N2CCc3cc(S(=O)(=O)Nc4c(F)cc(Cl)cc4F)cc(N4CCCC4=O)c32)nc1` [TP-020n], the % of control in assay [3] is 49%.

The compound `CCC(=O)N1CCN(c2ccc(-n3c(=O)ccc4cnc5ccc(-c6cnc7ccccc7c6)cc5c43)cc2C(F)(F)F)CC1` gave a % of control in assay [4] of 47%.

For the compound `CNC(=O)Nc1ccc(-c2nc(N3CC4CCC(C3)O4)c3cnn(C4CCC5(CC4)OCCO5)c3n2)cc1`, the % of control in assay [5] is 82%; in assay [6], 92%.

On to `CC[C@@H]1[C@H](F)C(=O)N[C@@H]1COc1nccc2cc(C(N)=O)c(OC)cc12` [ZIMLOVISERTIB], for which the values for the % of inhibition in [7] and in [8] were 25.1% and -0.1%, respectively.

As to `COCC(=O)NC/C=C/c1ccc2ncnc(Nc3ccc(Oc4ccc(C)nc4)c(C)c3)c2c1` [CP-724714], the % of control in assay [9] is 100%.
